One test deals with T1, human ALX receptor (Homo sapiens, UniProt P25090).
T1 construct: expressed in transfected cells; host or cells: HEK293 (HEK293-hALXR-Gα16)
T1 sequence (P25090 1-351): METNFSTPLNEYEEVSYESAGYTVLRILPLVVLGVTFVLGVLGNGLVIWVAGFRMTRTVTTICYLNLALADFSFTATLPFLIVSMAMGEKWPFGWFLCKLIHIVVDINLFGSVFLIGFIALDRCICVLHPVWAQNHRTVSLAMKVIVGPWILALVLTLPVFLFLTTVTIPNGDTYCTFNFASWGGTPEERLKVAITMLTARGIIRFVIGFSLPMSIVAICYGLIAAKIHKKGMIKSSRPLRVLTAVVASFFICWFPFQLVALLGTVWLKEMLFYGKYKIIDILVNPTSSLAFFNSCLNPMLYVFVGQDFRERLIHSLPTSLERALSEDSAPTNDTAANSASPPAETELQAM
Description: Intracellular calcium measurements (FLIPR), agonistic activity in HEK293-hALXR-Gα16 cells. The class given is cell-based. The following applies: Fluo-4 calcium FLIPR, normalized to WKYMVm 10 nM. The gist of the method: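 Agonist-induced calcium flux was recorded by FLIPR (488/540 nm) in HEK293-hALXR-Gα16 cells pre-loaded with Fluo-4 AM (1 μM, 60 min, 37°C). Peak signal above baseline, after subtracting buffer addition, was expressed relative to WKYMVm at 10 nM final.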

The next test has as its target T2, human FPRL2 (Homo sapiens, UniProt P25089).
T2 construct: expressed in transfected cells; host or cells: HEK293 (HEK293-hFPRL2-Gα16)
T2 sequence (P25089 1-353): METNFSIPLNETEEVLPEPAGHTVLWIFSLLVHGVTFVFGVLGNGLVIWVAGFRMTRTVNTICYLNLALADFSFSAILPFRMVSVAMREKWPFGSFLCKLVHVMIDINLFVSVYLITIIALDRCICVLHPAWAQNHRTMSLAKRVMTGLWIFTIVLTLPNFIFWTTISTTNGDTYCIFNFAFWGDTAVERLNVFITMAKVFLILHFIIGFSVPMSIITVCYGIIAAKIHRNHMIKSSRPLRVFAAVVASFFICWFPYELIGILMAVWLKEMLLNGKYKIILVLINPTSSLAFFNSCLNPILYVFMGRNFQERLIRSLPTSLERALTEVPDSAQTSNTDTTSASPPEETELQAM
The test can be described thus: Intracellular calcium measurements (FLIPR), agonistic activity in HEK293-hFPRL2-Gα16 cells. The test is classed as cell-based. The settings on record: Fluo-4 calcium FLIPR, normalized to GLY14-Humanin 100 nM. An outline of the steps:
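Peak values after baseline subtraction are expressed relative to 100 nM Gly14-Humanin; compounds diluted in assay buffer from 10 mM DMSO stocks.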
A general note: Calcium assays in cells follow changes in intracellular calcium, usually with a dye or a luminescent sensor.

For `O=C(NCCCCN1CCCC1)[C@H]1[C@H](C(=O)NCc2ccc(Cl)cc2)[C@@H]2C=C[C@H]1C21CC1` (racemic) [Example 230, (5R*)—N^5-(4-Chloro-phenyl-methyl)-(6R*)—N^6-(4-pyrrolidin-1-yl-butyl)-(4S*,7R*)-[4,7-ethenylene-spiro[2.4]heptane]-5,6-dicarboxamide], the figures for the EC50 at human ALX receptor and at human FPRL2 were 31 nM and 65 nM, respectively.
The like results for `CCCCCCNC(=O)[C@H]1[C@H](C(=O)Nc2ccc(Br)cc2)[C@@H]2C=C[C@H]1C21CC1` (racemic) [Example 75, (5R*)—N^5-(4-Bromophenyl)-(6R*)—N^6-(hexyl)-(4S*,7R*)-[4,7-ethenylene-spiro[2.4]heptane]-5,6-dicarboxamide] were, in that order, 73 nM and 7980 nM.
The like results for `COCCC(=O)NC[C@H]1[C@H](C(=O)Nc2ccc(Br)cc2)[C@@H]2C=C[C@H]1C21CC1` (racemic) [Example 163, (5R*)—N^5-(4-Bromo-phenyl)-(6R*)-6-[(3-methoxy-propionylamino)-methyl]-(4S*,7R*)-[4,7-ethenylene-spiro[2.4]heptane]-5-carboxamide] were, in that order, 72 nM and 5680 nM.
On the same counts, the results for `CC(=O)c1cnc(CNC(=O)[C@H]2[C@H](C(=O)NCCCCN3CCCC3)[C@H]3C=C[C@@H]2C32CC2)s1` (racemic) [Example 351, (5R*)—N^5-[(5-Acetyl-thiazol-2-yl)methyl]-(6R*)—N^6-(4-pyrrolidino-butyl)-(4S*,7R*)-[4,7-ethenylene-spiro[2.4]heptane]-5,6-dicarboxamide] are 6330 nM and 94 nM.
As to `O=C(NCCCCN1CCCC1)[C@H]1[C@H](C(=O)Nc2ccc(Br)nc2)[C@@H]2CC[C@H]1C21CC1` [Example 279, (5R)—N^5-(2-Bromopyrid-5-yl)-(6R)—N^6-(4-pyrrolidino-butyl)-(4S,7R)-[4,7-ethylene-spiro[2.4]heptane]-5,6-dicarboxamide], the EC50 (as a rule, the concentration that produces a half-maximal response) amounted to 1.3 nM on human ALX receptor and 62 nM on human FPRL2.
On the same counts, the results for `O=C(NCCCCN1CCCC1)[C@H]1[C@H](C(=O)Nc2ccc(C(F)(F)F)cn2)[C@@H]2C=C[C@H]1C21CC1` (racemic) [Example 252, (5R*)—N^5-(5-Trifluoromethyl-pyridin-2-yl)-(6R*)—N^6-(4-pyrrolidin-1-yl-butyl)-(4S*,7R*)-[4,7-ethenylene-spiro[2.4]heptane]-5,6-dicarboxamide] are 82 nM and 210 nM.
For `NCCCCNC(=O)[C@H]1[C@H](C(=O)NCc2ccc(Br)cc2F)[C@@H]2C=C[C@H]1C21CC1` [Example 320, (5R)—N^5-(4-Bromo-2-fluorophenyl-methyl)-(6R)—N^6-(4-amino-butyl)-(4S,7R)-[4,7-ethenylene-spiro[2.4]heptane]-5,6-dicarboxamide], the EC50 was 52 nM at human ALX receptor and 472 nM at human FPRL2.
The like results for `CCCCC(=O)NC[C@H]1[C@H](C(=O)Nc2ccc(Br)cc2)[C@@H]2C=C[C@H]1C21CC1` (racemic) [Example 167, (5R*)—N^5-(4-Bromo-phenyl)-(6R*)-6-(pentanoylamino-methyl)-(4S*,7R*)-[4,7-ethenylene-spiro[2.4]heptane]-5-carboxamide] were, in that order, 103 nM and 3690 nM.
On the same counts, the results for `CCC(CC)CNC(=O)[C@H]1[C@H](C(=O)NCCCCN2CCCC2)[C@H]2C=C[C@@H]1C21CC1` (racemic) [Example 149, (5R*)—N^5-(2-Ethyl-butyl)-(6R*)—N^6-(4-pyrrolidin-1-yl-butyl)-(4S*,7R*)-[4,7-ethenylene-spiro[2.4]heptane]-5,6-dicarboxamide] are 8090 nM and 691 nM.
The like results for `CC(NC(=O)C1C(C(=O)Nc2ccc(Br)cc2)C2C=CC1C21CC1)C(N)=O` (mixture of isomers) [Example 65, (5R*)—N^5-(4-Bromophenyl)-(6R*)—N^6-[(1S)-1-carbamoyl-ethyl]-(4S*,7R*)-[4,7-ethenylene-spiro[2.4]heptane]-5,6-dicarboxamide] were, in that order, 26 nM and above 25000 nM.
Turning to `COCC(Cc1ccccc1)NC(=O)C1C(C(=O)Nc2ccc(Br)cc2)C2C=CC1C21CC1` [Example 100, (5R*)—N^5-(4-Bromophenyl)-(6R*)—N^6-[(1S)-2-methoxy-1-benzyl-ethyl]-(4S*,7R*)-[4,7-ethenylene-spiro[2.4]heptane]-5,6-dicarboxamide], the values for the concentration giving a half-maximal response (EC50) at human ALX receptor and at human FPRL2 were 735 nM and 6110 nM, respectively.
On the same counts, the results for `O=C(NCCCn1cccn1)[C@H]1[C@H](C(=O)Nc2ccc(Br)cc2)[C@@H]2C=C[C@H]1C21CC1` (racemic) [Example 37, (5R*)—N^5-(4-Bromophenyl)-(6R*)—N^6-(3-1H-pyrazol-1-yl-propyl)-(4S*,7R*)-[4,7-ethenylene-spiro[2.4]heptane]-5,6-dicarboxamide] are 7.1 nM and 1710 nM.
On to `COc1ccc(CNC(=O)[C@H]2[C@H](C(=O)NCCCCN3CCCC3)[C@H]3C=C[C@@H]2C32CC2)c(OC)c1` (racemic) [Example 376, (5R*)—N^5-(2,4-Dimethoxyphenyl-methyl)-(6R*)—N^6-(4-pyrrolidino-butyl)-(4S*,7R*)-[4,7-ethenylene-spiro[2.4]heptane]-5,6-dicarboxamide], for which the EC50 was found to be 10300 nM at human ALX receptor and 334 nM on human FPRL2.
The like results for `O=C(NCCCCN1CCCC1)[C@H]1[C@H](C(=O)Nc2cnc(Cl)nc2)[C@@H]2C=C[C@H]1C21CC1` (racemic) [Example 142, (5R*)—N^5-(2-Chloro-pyrimidin-5-yl)-(6R*)—N^6-(4-pyrrolidin-1-yl-butyl)-(4S*,7R*)-[4,7-ethenylene-spiro[2.4]heptane]-5,6-dicarboxamide] were, in that order, 1330 nM and 182 nM.
Turning to `O=C(NCCCCN1CCCC1)[C@H]1[C@H](C(=O)Nc2nc3ccc(F)cc3s2)[C@@H]2C=C[C@H]1C21CC1` (racemic) [Example 148, (5R*)—N^5-(6-Fluoro-benzothiazol-2-yl)-(6R*)—N^6-(4-pyrrolidin-1-yl-butyl)-(4S*,7R*)-[4,7-ethenylene-spiro[2.4]heptane]-5,6-dicarboxamide], the EC50 on human ALX receptor was determined as 7600 nM; at human FPRL2, 226 nM.
The like results for `O=C(NCCCO)[C@H]1[C@H](C(=O)Nc2ccc(Br)cc2)[C@@H]2CC[C@H]1C21CC1` (racemic) [Example 107, (5R*)—N^5-(4-Bromophenyl)-(6R*)—N^6-(3-hydroxy-propyl)-(4S*,7R*)-[4,7-ethylene-spiro[2.4]heptane]-5,6-dicarboxamide] were, in that order, 1.8 nM and 2270 nM.
The like results for `NC(=O)CCNC(=O)[C@H]1[C@H](C(=O)NCc2ccc(Br)cc2F)[C@@H]2CC[C@H]1C21CC1` [Example 292, (5R)—N^5-(4-Bromo-2-fluorophenyl-methyl)-(6R)—N^6-(3-amino-3-oxopropyl)-(4S,7R)-[4,7-ethylene-spiro[2.4]heptane]-5,6-dicarboxamide] were, in that order, 71 nM and 661 nM.
The like results for `CC(C)(C)OC(=O)NCCCCNC(=O)[C@H]1[C@H](C(=O)Nc2ccc(Br)cc2)[C@@H]2C=C[C@H]1C21CC1` (racemic) [Example 46, (5R*)—N^5-(4-Bromophenyl)-(6R*)—N^6-(4-tert-butoxycarbonyl-amino-butyl)-(4S*,7R*)-[4,7-ethenylene-spiro[2.4]heptane]-5,6-dicarboxamide] were, in that order, 11 nM and 1600 nM.
For `CC(=O)c1nc(CNC(=O)[C@H]2[C@H](C(=O)NCCCCN3CCCC3)[C@H]3C=C[C@@H]2C32CC2)co1` (racemic) [Example 235, (5R*)—N^5-(2-Acetyl-oxazol-4-yl-methyl)-(6R*)—N^6-(4-pyrrolidin-1-yl-butyl)-(4S*,7R*)-[4,7-ethenylene-spiro[2.4]heptane]-5,6-dicarboxamide], the EC50 was found to be 153 nM at human ALX receptor and 181 nM at human FPRL2.
The like results for `O=C(NC1CC1)[C@H]1[C@H](C(=O)Nc2ccc(Br)cc2)[C@@H]2CC[C@H]1C21CC1` (racemic) [Example 106, (5R*)—N^5-(4-Bromophenyl)-(6R*)—N^6-(cyclopropyl)-(4S*,7R*)-[4,7-ethylene-spiro[2.4]heptane]-5,6-dicarboxamide] were, in that order, 82 nM and 2930 nM.
